The text below walks through data of patent US10161929B2, “Theranostics platform and methods of use” (Sanford Burnham Prebys Medical Discovery Institute, priority 2012, dated 2018).

What all share (format): cell-based, human
Assay [1] concerns Immortalized fibroblasts from a CMD patient. In words: Laminin binding, immortalized fibroblasts from a CMD patient (FIG. 5). As to conditions: dose response curve. As for the experimental part: FIG. 5. […] A dose response curve for Givinostat was prepared measuring laminin staining intensity at various concentrations of the compound. Laminin was labeled with rabbit anti-laminin antibodies. Nuclei are stained with DAPI. Fibroblasts obtained from a muscular dystrophy patient were seeded at 3000 cells per well in 384-well plates and treated in duplicate at 10 μm with individual compounds from the drug/nutraceutical library. After 48 hours in culture conditions, the cells were exposed to serum free media containing 0.1% BSA and 10 ug/ml laminin from Engelbreth-Holm-Swarm murine sarcoma basement membrane for a period of 2 hours. Cells were then fixed with 4% paraformaldehyde and stained with DAPI and a laminin-specific antibody, followed by a fluorescently labeled secondary antibody directed against the laminin specific antibody. The plates were then scanned using an Opera high content confocal microscopy screening system (PerkinElmer) at 20× magnification with separate fluorescent exposures, utilizing a UV light source and a 561 nm laser. Image analysis was performed to quantify levels of laminin staining using a customized algorithm written with Acapella software (Perkin Elmer). The cytoplasm was defined using DAPI staining as a mask, and the average cytoplasmic intensity of fluorescence per cell was calculated on the basis of at least six random fields captured per well.

For assay [2], the system named is Fibroblasts obtained from a muscular dystrophy patient. Description: Laminin binding assay (high content screen) in fibroblasts from a muscular dystrophy patient. Conditions: for hit in the laminin binding screen (normalizes fibroblast laminin binding; at least 20% activity compared with controls): 10 μm, duplicate, 48 hours, 384-well plates, anti-laminin staining. As for the experimental part:
(§1) Fibroblasts obtained from a muscular dystrophy patient were seeded at 3000 cells per well in 384-well plates and treated in duplicate at 10 μm with individual compounds from the drug/nutraceutical library. After 48 hours in culture conditions, the cells were exposed to serum free media containing 0.1% BSA and 10 ug/ml laminin from Engelbreth-Holm-Swarm murine sarcoma basement membrane for a period of 2 hours. Cells were then fixed with 4% paraformaldehyde and stained with DAPI and a laminin-specific antibody, followed by a fluorescently labeled secondary antibody directed against the laminin specific antibody. The plates were then scanned using an Opera high content confocal microscopy screening system (PerkinElmer) at 20× magnification with separate fluorescent exposures, utilizing a UV light source and a 561 nm laser.
(§2) Image analysis was performed to quantify levels of laminin staining using a customized algorithm written with Acapella software (Perkin Elmer). The cytoplasm was defined using DAPI staining as a mask, and the average cytoplasmic intensity of fluorescence per cell was calculated on the basis of at least six random fields captured per well.
A compound in the drug/nutraceutical library was considered to normalize the level of fibroblast laminin binding if the compound scored at least 20% activity compared with controls. Fibroblasts from a healthy individual, or from patient cells treated with Trichostatin A at 2 uM were used as positive controls.
Trichostatin A, SAHA, and Givinostat (another HDAC inhibitor in the same class as Trichostatin A and SAHA) were further tested in an eight-point dose-response assay (at a range of 20-0.02 μm, at three fold dilutions) in triplicate.

The subject of assay [3] is fibroblasts from the CMD-POMT1 patient. In words: Laminin binding, fibroblasts from a POMT1 deficient CMD patient (FIG. 9). As for the experimental part: (§3) FIG. 9. Fibroblasts were taken from an FKRP deficient CMD patient and a POMT1 deficient CMD patient. […] Laminin is labeled with rabbit anti-laminin antibodies. Nuclei are stained with DAPI.
as §1, §2

For assay [4], the system named is fibroblasts from the CMD-FKRP patient. Description: Laminin binding, fibroblasts from FKRP deficient patients (FIG. 6, FIG. 9).
Text: FIG. 6. Fibroblasts were obtained from CMD patients with either low (CMD-FKRP) laminin binding, mid-range laminin binding (LGMD/CMD-FKRP), or closer to normal (LGMD-FKRP) laminin binding. […] Laminin was labeled with rabbit anti-laminin antibodies. Nuclei are stained with DAPI.
as §3
Fibroblasts obtained from a muscular dystrophy patient were seeded at 3000 cells per well in 384-well plates and treated in duplicate at 10 μm with individual compounds from the drug/nutraceutical library. After 48 hours in culture conditions, the cells were exposed to serum free media containing 0.1% BSA and 10 ug/ml laminin from Engelbreth-Holm-Swarm murine sarcoma basement membrane for a period of 2 hours. […]
as §2

Structures are written as SMILES.

In the case of `CCN(CC)Cc1ccc2cc(COC(=O)Nc3ccc(C(=O)NO)cc3)ccc2c1` [Givinostat], in assay [1], the “levels of laminin binding (laminin staining intensity)” value is “increased levels of laminin binding”.

With `O=C(CCCCCCC(=O)Nc1ccccc1)NO` [SAHA], the “hit in the laminin binding screen (normalizes fibroblast laminin binding; at least 20% activity compared with controls)” value in assay [2] is given as “identified as hits”. Besides, in assay [2] (fibroblasts from a CMD-affected patient, compared with unaffected sibling, rabbit anti-laminin antibodies, FIG. 4), the “laminin binding of patient's fibroblasts after treatment” value is “normalized to the levels of the patient's unaffected sibling”.

For the molecule `CC(/C=C/C(=O)NO)=C\[C@@H](C)C(=O)c1ccc(N(C)C)cc1` [Trichostatin A], the laminin binding result in assay [3] is on record as “did not result in visibly increased laminin binding”; in assay [4] (fibroblasts from the CMD-FKRP patient, FIG. 9) it was “increased laminin binding”; in assay [4] (fibroblasts with low (CMD-FKRP), mid-range (LGMD/CMD-FKRP) or closer to normal (LGMD-FKRP) laminin binding, FIG. 6) it was “increased laminin binding”. In assay [2], the “hit in the laminin binding screen (normalizes fibroblast laminin binding; at least 20% activity compared with controls)” value is “identified as hits”.
